Measurements from patent US20220000872A1, “METHOD OF ENHANCING IMMUNE-BASED THERAPY” (OncoTracker, Inc., priority 2018, published 2022).

Legend:
PD-L1 gene expression [1] = conditions: MM patient; after 4 months of treatment vs before treatment; qPCR
Text: (§1) A second sample of BMMCs was collected after treatment with ruxolitinib, methylprednisolone, and lenalidomide.

PD-L2 gene expression = conditions: MM patient; after 4 months of treatment vs before treatment; qPCR
Text: as §1

PD-L1 gene expression [2] = assay: PD-L1 gene expression in BMMCs from MM patient #2188 co-cultured with HS-5 stromal cells or THP-1 monocytes; type: cell-based, human; conditions: RUX 1 μM, 48 hours
Description: We also examined the effects of RUX on PD-L1 gene expression in MM tumor cells co-cultured with stromal cells or monocytes in vitro. BMMCs from MM patient #2188 were co-cultured with stromal cells from the HS-5 cell line (ATCC, CRL-11882) with or without RUX (1 μM) treatment. After 48 hours of co-culture, PD-L1 gene expression was increased in both BMMCs (FIG. 5A) and stromal cells (FIG. 5B) from the co-culture of both cell types compared with its expression in those cell types cultured alone. The increased PD-L1 levels were reduced in the presence of RUX (1 μM) in both cell populations after 48 hours of culture. Similarly, PD-L1 gene expression was increased in both BMMCs and monocytes (THP-1 cells) after co-culture compared with cells cultured alone (FIG. 5C and FIG. 5D) and reduced following exposure to RUX (1 μM).
FIG. 5A depicts relative PD-L1 gene expression in BMMCs from patient #2188 cultured with stromal cells (ATCC, HS-5) with RUX (1 μM) or without for 48 hours. BM, bone marrow cells alone; BM+1 μM, BMMCs treated with 1 μM RUX; BM/BM+S−0 μM, BMMCs with stromal cells without RUX; BM/BM+S+1 μM, BMMCs with stromal cells and 1 μM RUX.
FIG. 5B depicts relative PD-L1 gene expression in stromal cells (ATCC, HS-5) co-cultured with BMMCs from patient #2188 on Transwell inserts with (1 μM) or without RUX for 48 hours. Stroma cells (S) alone; stromal cells+1 μM, stromal cells treated with RUX (1 μM); S/BM+S−0 μM, BMMCs with stromal cells without RUX; S/BM+S−1 μM, BMMCs with stromal cells with RUX at 1 μM.
FIG. 5C depicts relative PD-L1 gene expression in BMMCs from patient #2188 co-cultured with THP-1 monocytes treated with (1 μM) or without RUX for 48 hours. BM, BMMCs alone; BM+1 μM, BMMCs treated with 1 μM RUX; BM/BM+T−0 μM, BMMCs with THP-1 monocytes without RUX; BM/BM+T+1 μM, BMMCs with THP-1 monocytes treated with RUX 1 μM.
FIG. 5D depicts relative PD-L1 gene expression in THP-1 monocytes co-cultured with BMMCs from patient #2188 on Transwell inserts with (1 μM) or without RUX for 48 hours. THP-1 only, THP-1 cells alone; THP-1+1 μM, THP-1 cells treated with 1 μM RUX; T/BM+T−0 μM, MM BMMCs with THP-1 cells without RUX; T/BM+T−1 μM, BMMCs with THP-1 monocytes with RUX (1 μM).

[3] = test system: Tumor cells from the LAGκ-1A human MM xenograft; assay: Annexin V apoptosis assay of LAGκ-1A myeloma tumor cells with or without IL-2 pre-treated T-cells; type: cell-based; conditions: in the absence of T-cells
Description: T-cells (SUP-T1, ATCC) were pre-treated with IL-2 (20 ng/ml) for 24 hours. In the RUX at 1 μM with anti-PD-L1 group, the antibody concentrations were varied as indicated on the x-axis but the RUX was tested at a fixed concentration (1 μM). For the anti-PD-L1 at 5 mg/mL with RUX group, the RUX concentrations were varied as on the x-axis but the anti-PD-L1 antibody was evaluated at a fixed concentration (5 mg/mL). Tumor cells from the LAGκ-1A human MM xenograft were single-cell suspended and co-cultured with T cells treated with either RUX (1 μM) and anti-PD-L1 antibody or RUX alone for 72 hours. Tumor cell apoptosis was measured using the Annexin V assay per the manufacturer's protocol (Biovision) followed with flow cytometric analysis (FC-500 cytometer using Cytometric CXP software, both Beckman Coulter).
T-cells were pre-treated with IL-2 (20 ng/ml) for 24 hours. […] For the anti-PD-1 at 5 mg/mL with RUX group, the RUX concentrations were varied as on the x-axis but the anti-PD-1 antibody was evaluated at a fixed concentration (5 mg/mL). […] Tumor cell apoptosis was measured using the Annexin V assay per the manufacturer's protocol (Biovision) followed with flow cytometric analysis (FC-500 cytometer using Cytometric CXP software, both Beckman Coulter). […]

[4] = test system: CD138+ myeloma tumor cells; assay: Annexin V apoptosis assay of CD138-selected primary myeloma cells co-cultured with IL-2-stimulated T-cells; type: cell-based, human; conditions: CD138+ cells with IL-2-stimulated SUP-T1 T cells; 72 hours; RUX at varying concentrations; rose from approximately 35% up to this value, concentration dependent
Description: FIG. 10A depicts an apoptosis assay of fresh CD138-selected myeloma tumor cells combined with IL-2-stimulated T-cells (SUP-T1, ATCC) and treated with ruxolitinib (RUX) in vitro. T-cells were pre-treated with IL-2 (20 ng/ml) for 24 hours. Primary myeloma cells were CD138-selected using an immunoadsorption column and co-cultured with T cells with or without RUX at varying concentrations for 72 hours. Apoptosis in CD138+ cells was measured using the Annexin V assay per the manufacturer's protocol (Biovision) followed with flow cytometric analysis (FC-500 cytometer using Cytometrics CXP software, both Beckman Coulter). Minimal apoptosis was observed without T cells. Apoptosis occurred in a much higher proportion of myeloma tumor cells exposed to IL-2-stimulated T cells (FIG. 10A). RUX increased the fraction of cells that underwent apoptosis from approximately 35% up to about 65% in a concentration dependent fashion.

multiple myeloma = conditions: combined with a thalidomide derivative such as lenalidomide and optionally a steroid or glucocorticoid; cited from earlier work

## N#CC[C@H](C1CCCC1)n1cc(-c2ncnc3[nH]ccc23)cn1 [RUX, ruxolitinib]
PD-L1 gene expression [1]
  PD-L1 gene expression in BMMCs: down-regulates
PD-L2 gene expression
  PD-L2 gene expression in BMMCs: down-regulates
PD-L1 gene expression [2]; HS-5 with patient #2188 BMMCs
  PD-L1 gene expression in stromal cells co-cultured with BMMCs: reduced
PD-L1 gene expression [2]; THP-1 with patient #2188 BMMCs
  PD-L1 gene expression in monocytes (THP-1 cells) co-cultured with BMMCs: reduced
PD-L1 gene expression [2]; patient #2188 BMMCs with HS-5
  PD-L1 gene expression in BMMCs co-cultured with stromal cells: reduced
PD-L1 gene expression [2]; patient #2188 BMMCs with THP-1
  PD-L1 gene expression in BMMCs co-cultured with monocytes: reduced
[3]
  apoptosis of LAGκ-1A cells, single-agent treatment: does not lead to significant apoptosis
[4]
  fraction of cells that underwent apoptosis: about 65%
Multiple myeloma
  efficacy in treating hematological malignancies (in particular, multiple myeloma): effective
